Source: the supplement of paper PMC12669032

Tests used:
Test in all cases: growth AUC relative to DMSO control (fraction); higher = more growth (less inhibition)
Conditions in all cases: 24 h
Clostridium difficile = tested on: Clostridium difficile
Experimental: (§1)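 Validation screen: 11 independently purchased pesticides tested on 8 gut bacterial strains at 2.5–320 µM in mGAM, anaerobic, 37 °C, 24 h. Growth AUC normalised to DMSO controls, mean of 3 independent experiments.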

Lactobacillus gasseri = tested on: Lactobacillus gasseri
Experimental: as §1

Streptococcus salivarius = tested on: Streptococcus salivarius
Experimental: as §1

Escherichia coli IAI1 = tested on: Escherichia coli IAI1
Experimental: as §1

Roseburia intestinalis = tested on: Roseburia intestinalis
Experimental: as §1

Eubacterium rectale = tested on: Eubacterium rectale
Experimental: as §1

Bacteroides uniformis = tested on: Bacteroides uniformis
Experimental: as §1

[1] = tested on: Parabacteroides distasonis
Experimental: as §1

CCC(C)[C@H]1O[C@]2(C=C[C@@H]1C)C[C@@H]1C[C@@H](C/C=C(\C)[C@@H](O[C@H]3C[C@H](OC)[C@@H](O[C@H]4C[C@H](OC)[C@@H](O)[C@H](C)O4)[C@H](C)O3)[C@@H](C)/C=C/C=C3\CO[C@@H]4[C@H](O)C(C)=C[C@@H](C(=O)O1)[C@]34O)O2.CO[C@H]1C[C@H](O[C@H]2[C@H](C)O[C@@H](O[C@@H]3/C(C)=C/C[C@@H]4C[C@@H](C[C@]5(C=C[C@H](C)[C@@H](C(C)C)O5)O4)OC(=O)[C@@H]4C=C(C)[C@@H](O)[C@H]5OC/C(=C\C=C\[C@@H]3C)[C@]54O)C[C@@H]2OC)O[C@@H](C)[C@@H]1O (stereo not given in full) [ABAMECTIN]
growth AUC
Conditions	Bacteroides uniformis	Clostridium difficile	Escherichia coli IAI1	Eubacterium rectale	Lactobacillus gasseri	Roseburia intestinalis	Streptococcus salivarius	[1]
2.5 µM	0.975	1.02	1.01	1.29	1.04	0.865	1.04	0.985
5 µM	0.996	0.979	0.978	1.17	1.07	0.871	0.973	0.918
10 µM	0.968	0.968	1.01	1.05	1.03	0.564	0.983	0.409
20 µM	0.996	0.986	0.957	0.881	0.983	0.21	0.876	0.057
40 µM	0.974	0.966	1.01	0.774	0.952	0.121	0.894	0.0234
80 µM	0.971	0.887	1	0.892	1.02	0.102	0.887	0.0192
160 µM	0.99	0.885	0.974	0.999	0.889	0.107	1.01	0.0484

Cc1cc(C(C#N)c2ccc(Cl)cc2)c(Cl)cc1NC(=O)c1cc(I)cc(I)c1O (stereo not given) [CLOSANTEL]
growth AUC
Conditions	Bacteroides uniformis	Clostridium difficile	Escherichia coli IAI1	Eubacterium rectale	Lactobacillus gasseri	Roseburia intestinalis	Streptococcus salivarius	[1]
2.5 µM	1	0.0348	1.07	0.453	0.809	0.246	1.05	0.245
5 µM	0.973	0.0106	1.04	0.242	0.827	0.149	1.04	0.00935
10 µM	0.616	0.0157	1.03	0.0185	0.866	0.0586	1.09	0.00581
20 µM	0.609	0.0183	0.929	0.0129	0.848	0.0162	1.06	0.00682
40 µM	0.573	0.00635	0.904	0.00913	0.815	0.0268	1.04	0.0119
80 µM	0.575	0.0171	0.886	0.0119	0.836	0.0158	1.13	0.0133
160 µM	0.575	0.072	0.861	0.0223	0.81	0.0258	1.06	0.0101

CCCCOC(=O)[C@@H](C)Oc1ccc(Oc2ccc(C#N)cc2F)cc1 [CYHALOFOP-BUTYL]
growth AUC
Conditions	Bacteroides uniformis	Clostridium difficile	Escherichia coli IAI1	Eubacterium rectale	Lactobacillus gasseri	Roseburia intestinalis	Streptococcus salivarius	[1]
2.5 µM	1.01	1.02	1.01	1.11	1.05	1.01	1.07	1.04
5 µM	0.969	0.984	0.98	1.04	0.986	0.964	1.02	0.93
10 µM	0.994	0.98	0.975	1.05	0.986	1.02	0.957	0.859
20 µM	0.937	1.03	0.972	0.967	0.981	0.891	0.972	0.717
40 µM	0.971	1.02	0.996	1.02	0.956	0.981	0.981	0.643
80 µM	0.99	0.992	0.979	1.13	1.01	0.976	0.999	0.684
160 µM	0.968	1.01	0.992	1.18	0.969	0.998	1.01	0.588
320 µM	0.925	0.977	1	1.28	0.975	0.918	1.1	0.437

O=[N+]([O-])c1cc(C(F)(F)F)c(Cl)c([N+](=O)[O-])c1Nc1ncc(C(F)(F)F)cc1Cl [FLUAZINAM]
growth AUC
Conditions	Bacteroides uniformis	Clostridium difficile	Escherichia coli IAI1	Eubacterium rectale	Lactobacillus gasseri	Roseburia intestinalis	Streptococcus salivarius	[1]
2.5 µM	1.04	0.99	1.03	1.04	1.01	1.01	1.04	0.966
5 µM	1.02	0.995	1.01	0.887	0.968	1.08	1	0.859
10 µM	0.996	0.969	1.03	0.692	0.921	0.959	0.984	0.411
20 µM	0.807	0.909	0.912	0.227	0.844	0.879	0.815	0.0128
40 µM	0.593	0.0127	0.934	0.0306	0.847	0.584	0.992	0.0301

CCCC1COC(Cn2cncn2)(c2ccc(Cl)cc2Cl)O1 (stereo not given) [PROPICONAZOLE]
growth AUC
Conditions	Bacteroides uniformis	Clostridium difficile	Escherichia coli IAI1	Eubacterium rectale	Lactobacillus gasseri	Roseburia intestinalis	Streptococcus salivarius	[1]
2.5 µM	1.03	0.982	1	1.19	1.03	0.971	1.1	1.12
5 µM	0.99	1.01	0.993	0.951	0.968	0.925	1.04	1
10 µM	1.02	0.967	0.971	0.703	1.02	1.01	1.06	0.988
20 µM	0.97	1.03	0.981	0.475	0.96	0.894	0.994	0.874
40 µM	0.951	0.981	0.999	0.344	0.972	0.947	1.04	0.488
80 µM	0.915	0.979	0.975	0.0163	0.94	0.716	1.06	0.284
160 µM	0.831	0.885	0.996	0.0214	0.851	0.202	1.03	0.0246
320 µM	0.618	0.385	0.994	0.0204	0.832	0.0162	0.932	0.0187
